Drawing on PubChem BioAssay (NCI), this text covers TGI and GI50 for eight molecules.

“And” between values parts separate entries of the source, which are not always exact repeats. Equal entries are not always repeated.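 Values below derive from 48-hour exposures of cells grown in 96-well plates, with endpoints linearly interpolated between the two concentrations bracketing the appropriate inhibition level. GI50 is the concentration that inhibits growth by half. TGI: total growth inhibition.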

Common to all, as to experiment: inhibition of tumour cell growth, NCI panel, 48 h
Assay [1] relates to CCRF-CEM leukemia.
Assay [2] relates to HOP-92 NSCLC.
Assay [3] relates to K-562 leukemia.
In assay [4] the test system is LOX IMVI melanoma.
Assay [5] concerns NCI-H460 lung.
Assay [6] deals with RPMI-8226 leukemia.
In assay [7] the test system is SN12C renal.
Assay [8] has as its system SNB-19 CNS.
In assay [9] the test system is SW-620 colon.
For assay [10], the system named is UACC-62 melanoma.

Take `O=C1OC(OC/C(Br)=C(/Br)COC2OC(=O)C(Cl)=C2Cl)C(Cl)=C1Cl` (stereo unspecified): the TGI in [1] is 4.93 µM; in assay [2] it was 29.2 µM; in assay [3] it was 5.85 µM; in assay [4] it was 8.36 µM; in assay [5], 39.4 µM; in assay [6], 5.19 µM. For the same molecule, the TGI turned out to be 22.6 µM in assay [7], 37 µM in assay [8], 8.26 µM in assay [9] and 29.1 µM in assay [10].
Regarding `CNC(=O)c1cncc(/C=C/c2c(Cl)cccc2Cl)c1`, the GI50 in assay [1] is over 25 µM; in assay [2] it was 2.31 µM; in assay [3], 8.14 µM; in [4], over 19.6 µM; in [5], over 25 µM; in assay [6], over 25 µM. For the same molecule, the GI50 in [7] is over 21 µM; in assay [8] it was over 22.4 µM; in assay [9] it was over 25 µM; in assay [10], over 19.8 µM. Moreover, the TGI in assay [1], in [2], in assay [3], in assay [4], in assay [5] and in [6] was over 25 µM in each case. In addition, the TGI in assay [7], in assay [8], in assay [9] and in assay [10] was over 25 µM throughout.
On to `CCN(CC)CCC(=O)O[C@H]1CC[C@H](CC(C)[C@H]2CC(=O)C(C)C=C(C)[C@H](OC(=O)CCN(CC)CC)C(OC)C(=O)[C@@H](C)CC(C)/C=C/C=C/C=C(C)C(OC)CC3CC[C@H](C)[C@](O)(O3)C(=O)C(=O)N3CCCCC3C(=O)O2)CC1OC` (stereo partly specified), for which the TGI is > 10 µM and 1.57 µM in assay [1]; 4.31 µM and 1.62 µM in assay [2]; 5.2 µM and 3.65 µM in assay [3]; 1.94 µM and 1.65 µM in assay [4]; 3.48 µM and 2.69 µM in assay [5]; 5.24 µM and 2.95 µM in [6]. The TGI in [7] is 4.28 µM and 2.17 µM; in assay [8] it was 7.68 µM and 2.24 µM; in assay [9], 3.66 µM and 2 µM; in [10] it was 1.99 µM. Besides, the GI50 in assay [2] is 0.025 µM; in assay [4], 0.00795 µM; in assay [5], 0.292 µM and 1.34 µM; in assay [6] it was 0.00666 µM; in [7], 1.42 µM; in [8], 0.0358 µM. Further, the GI50 in assay [9] is 1.37 µM.
As to `COc1ccc(/C=N\O[Si](C)(C)C(C)(C)C)cc1O[Si](C)(C)C(C)(C)C`, the TGI in assay [1] was determined as 48 µM; in assay [2] it was 37.6 µM; in assay [3], 37.2 µM; in [4], 36.5 µM; in assay [5], 46.3 µM; in [6], 39 µM. Besides, the TGI in [7] is 35.1 µM; in assay [8], 33.3 µM; in assay [9], 36.9 µM; in [10] it was 40.2 µM.
As to `O=C(CC(=O)C1CCOC1=O)C(=O)Nc1ccc(Cl)cc1` (stereo unspecified), the TGI in assay [1], in [2], in assay [3], in [4], in assay [5] and in assay [6] was over 100 µM throughout. Also, the TGI in assay [7], in assay [8], in [9] and in assay [10] was over 100 µM each time.
As for `O=C1C=C(OCCCl)C(=O)c2c(O)ccc(O)c21`, the GI50 in [1] is 1.32 µM; in assay [2] it was 3.43 µM; in assay [3] it was 1.17 µM; in [4], 0.465 µM; in [5], 2.15 µM; in [6], 1.38 µM. The GI50 was 1.58 µM in [7]; 0.296 µM and 1.56 µM in assay [9]; 0.386 µM in assay [10]. Further, the TGI is 3.5 µM in assay [1]; 3.8 µM and 8 µM in assay [2]; 3.11 µM in assay [3]; 0.392 µM and 1.83 µM in assay [4]; 2.05 µM and 4.67 µM in assay [5]; 6.78 µM and 4.08 µM in assay [6]. Also, the TGI in [7] was 0.526 µM and 3.03 µM; in assay [8], 2.56 µM; in [9], 1.15 µM and 3.85 µM; in assay [10], 0.519 µM and 1.61 µM.
As for `C=C1C(=O)O[C@H]2[C@H]1CC/C(CNC(=O)/C=C/c1ccc(Cl)cc1Cl)=C\CC[C@@]1(C)O[C@@H]21`, the GI50 in [1] is 0.304 µM; in assay [2], 0.483 µM; in assay [3], 0.696 µM; in assay [4] it was 0.516 µM; in [5], 1.76 µM; in assay [6], 0.329 µM. Besides, the GI50 is 1.73 µM in assay [7], 3.24 µM in [8], 1.28 µM in assay [9] and 1.33 µM in assay [10]. The TGI in assay [1] stood at 1.19 µM; in assay [2], 2.52 µM; in assay [3] it was 4.16 µM; in [4], 1.81 µM; in assay [5] it was 3.52 µM; in assay [6], 1.54 µM. Moreover, the TGI in assay [7] was 4.08 µM; in assay [8], 14.2 µM; in assay [9], 2.68 µM; in [10] it was 2.9 µM.
Turning to `COc1ccc2c(c1)C=C1CSCC3=Cc4cc(OC)ccc4OC13O2`, the GI50 is 0.328 µM in [1]; 4.6 µM in [2]; 0.228 µM in assay [3]; 0.656 µM in assay [4]; 0.387 µM in assay [5]; 0.368 µM in assay [6]. The GI50 is 0.723 µM in [7], 0.552 µM in [8], 0.373 µM in assay [9] and 0.783 µM in assay [10]. Also, the TGI in assay [1] is over 85.3 µM; in assay [2] it was over 100 µM; in [3] it was over 100 µM; in assay [4], over 100 µM; in assay [5], over 100 µM; in assay [6], over 34.4 µM. Besides, the TGI in assay [7], in assay [8], in assay [9] and in [10] was over 100 µM each time.
